Measured values taken from patent US7560473B2 (Institute of Pharmacology and Toxicology Academy of …, priority 2001, dated 2009).

Tested on: jirds
Assay: Pan-cerebral ischemia-reperfusion injury in jirds (BCAO)
Assay type: in vivo
Conditions: 7 days, dosage-dependent
Protocol: Biological Activity Experiment 7 The Protective Effects of compound 1 on Pan-Cerebral Ischemia-Reperfusion Injury in Jirds
The methods of biological activity experiment were carried out as follows: equal amounts of male and female jirds (60-70 g) were subjected to bilateral cervical aorta occlusion (BCAO) under narcotism. The drugs or equal amounts of physiological saline solution were injected peritoneally at 30 min before occlusion. After the blood flow in the bilateral cervical aorta was blocked for 5 min, reperfusion was restored and the drug was administered once a day for 7 days. During the BCAO, the body temperature was maintained at 37° C. In the control group, the cervical aorta was only exposed, while not blocked for blood flow. The animals were divided in 6 groups randomly: control group, ischemic group and compound-treated group (0.5, 1.0, 2.0 and 4.0 mg.kg^−1, ip). 7 days after BCAO, the animals were deeply anesthetized by injecting peritoneally 80 mg.kg^−1 pentobarbitol sodium, and perfused with 50 mL physiological saline solution and 4% paraformaldehyde through heart. The brain was dissected, immersed in 4% paraformaldehyde for 24 h, dehydrated, cleared, embedded with paraffin, sectioned and stained with HE. TUNEL staining was employed to detect the nerve apoptosis.

CC(C)NC(C)(C)C(C)C [compound 1, N-(1-methylethyl)-2,3-dimethyl-2-butylamine]
number of dead pyramidal nerve of hippocampal CA1 region (HE staining) (0.5-4.0 mg.kg^−1.d^−1 ip): significantly decreased the number of dead pyramidal nerve | apoptosis of pyramidal nerve of hippocampal CA1 region (TUNEL) (0.5-4.0 mg.kg^−1 ip): significantly alleviate the apoptosis
